Results: patent EP0328121A1, “Substituted hydrazine mitomycin analogs” (priority 1988, dated 1989)
Where “and” joins values, the source holds several entries; their conditions need not be identical. Identical values can stand only once. Like-named read-outs stand apart in the source and are kept apart here.

Tested on: P-388 murine leukemia
Assay: Activity against P-388 murine leukemia (P-388 screen, survival of tumor-implanted mice)
Format: in vivo, CDF₁ female mice
Conditions: for minimal effective dose: Mus musculus, P388, ip; for activity against P-388 leukemia (in words): in vivo P-388 leukemia, compared to concurrently run mitomycin C controls
Experimental: The Table contains the results of laboratory tests with CDF₁ female mice implanted intraperitoneally with a tumor inoculum of 10⁶ ascites cells of P-388 murine leukemia and treated with various doses of either a test compound of this invention, or with mitomycin C. The compounds were administered by intraperitoneal injection. Groups of six mice were used for each dosage amount and they were treated with a single dose of the compound on the day of inoculation. A group of ten saline treated control mice was included in each series of experiments. The mitomycin C treated groups were included as a positive control. A 30-day protocol was employed with the mean survival time in days being determined for each group of mice and the number of survivors at the end of the 30-day period being noted.
The results were determined in terms of % T/C which is the ration of the mean survival time of the treated group to the mean survival time of the saline treated control group times 100. The saline treated control animals usually died within nine days. The "maximum effect" in the following Table is expressed as % T/C and the dose giving that effect is given in parentheses. The values in brackets are the values obtained with mitomycin C as the positive control in the same experiment. Thus, a measure of the relative activity of the present substances to mitomycin C can be estimated. A minimum effect in terms of % T/C was considered to be 125. The minimum effective dose (MED) reported in the following Table is that dose given a % T/C of approximately 125 or greater.

[1] = read-out: MED (minimum effective dose, %T/C≧125), P-388 leukemia ip, single ip dose on the day of inoculation, mitomycin C value in brackets from the same experiment

Compound	minimal effective dose [1] [mg/kg]	activity against P-388 leukemia (in words)	minimal effective dose (P-388 leukemia ip, single ip dose on the day of inoculation, mitomycin C value in brackets from the same experiment, read-out: MED (minimum effective dose, %T/C≧125)) [mg/kg]	MED (minimum effective dose, %T/C≧125) (P-388 leukemia ip, single ip dose on the day of inoculation, mitomycin C value in brackets from the same experiment)
CO[C@@]12[C@H](COC(N)=O)C3=C(C(O)=C(C)C(=NNC(C)=O)C3=O)N1C[C@@H]1N[C@@H]12 [I, Acetic acid, [1aS-(1aα, 8β, 8aα, 8bα)]-[8-[[(aminocarbonyl)oxy]methyl]-1,1a,2,8,8a,8b-hexahydro-4-hydroxy-8a-methoxy-5-methyl-7-oxoazirino [2′,3′;3,4]pyrrolo[1,2-a]indol-6(7H)-ylidene]hydrazide]	1.6	pronounced activity		
CO[C@@]12[C@H](COC(N)=O)C3=C(C(O)=C(C)C(=NNC(=O)c4ccccc4)C3=O)N1C[C@@H]1N[C@@H]12 [II, Benzoic acid, [1aS-(1aα, 8β, 8aα, 8bα)]-[8-[[(aminocarbonyl)-oxy]methyl]-1,1a,2,8,8a,8b-hexahydro-4-hydroxy-8a-methoxy-5-methyl-7-oxoazirino[2′,3′,4]pyrrolo[1,2-a]indol-6(7H)-ylidene]hydrazide]	0.8	moderately active		
CO[C@@]12[C@H](COC(N)=O)C3=C(C(O)=C(C)C(=NNC(=O)c4cccnc4)C3=O)N1C[C@@H]1N[C@@H]12 [III, 3-Pyridinecarboxylic acid, [1aS-(1aα, 8β, 8aα, 8bα)]-[8-[[(aminocarbonyl)-oxy]methyl]-1,1a,2,8,8a,8b-hexahydro-4-hydroxy-8a-methoxy-5-methyl-7-oxoazirino[2′,3′;3,4,]pyrrolo[1,2-a]indol-6(7H)-ylidene]hydrazide]	12.8	moderately active		
CO[C@@]12[C@H](COC(N)=O)C3=C(C(O)=C(C)C(=NNC(=O)c4cccs4)C3=O)N1C[C@@H]1N[C@@H]12 [IV]	0.8	moderately active		
CCOC(=O)NN=C1C(=O)C2=C(C(O)=C1C)N1C[C@@H]3N[C@@H]3[C@]1(OC)[C@@H]2COC(N)=O [V, Ethyl [1aS-(1aα, 8β, 8aα, 8bα)]-[8-[[(aminocarbonyl)oxy]methyl]-1,1a,2,8,8a,8b-hexahydro-4-hydroxy-8a-methoxy-5-methyl-7-oxoazirino[2′,3′,3,4]pyrrolo[1,2-a]indol-6(7H)-ylidene]hydrazinecarboxylate]	0.8	highest efficacy		
CO[C@@]12[C@H](COC(N)=O)C3=C(C(O)=C(C)C(=NNC(=O)OCc4ccccc4)C3=O)N1C[C@@H]1N[C@@H]12 [VII, Phenylmethyl [1aS-(1aα, 8β, 8aα, 8bα)]-[8-[[(aminocarbonyl)-oxy]methyl]-1,1a, 2,8,8a, 8b-hexahydro-4-hydroxy-8a-methoxy-5-methyl-7-oxoazirino[2′, 3′; 3, 4]pyrrolo[1,2-a]indol-6(7H)-ylidene] hydrazinecarboxylate]	1.6	highest efficacy		
CO[C@@]12[C@H](COC(N)=O)C3=C(C(O)=C(C)C(=NNC(=O)OCC4c5ccccc5-c5ccccc54)C3=O)N1C[C@@H]1N[C@@H]12 [VIII, 9′-Fluorenylmethyl[1aS-(1aα, 8β, 8aα, 8bα)]-[8-[[(aminocarbonyl)oxy]-methyl]-1,1a, 2,8,8a, 8b-hexahydro-4-hydroxy-8a-methoxy-5-methyl-7-oxoazirino[2′, 3′;3,4,]pyrrolo[1,2-a]indol-6(7H)-ylidene]hydrazine carboxylate]	0.8	highest efficacy		
CO[C@@]12[C@H](COC(N)=O)C3=C(C(O)=C(C)C(=NNC(=O)OC(C)(C)C)C3=O)N1C[C@@H]1N[C@@H]12 [VI]	0.8			
CO[C@@]12[C@H](COC(N)=O)C3=C(C(=O)C(C)=C(N)C3=O)N1C[C@@H]1N[C@@H]12 [mitomycin C, 7-amino-9α-methoxymitosane, reference compound]			1.6	1.6[1.6] mg/kg per dose and 0.8[0.8] mg/kg per dose
